The test system of experiment [1] is A431 cells. The experiment in a line: In vitro growth inhibition (MTT assay) in A431 cells. It is filed as cell-based, human. Particulars: read-out: Inhibition of cell growth IC50. As for the experimental part:
This assay measures the amount of MTT reduction by mitochondrial dehydrogenase and assumes that cell viability (corresponding to the reductive activity) is proportional to the production of purple formazan that is measured spectrophotometrically.
(§1) Cell line. The in vitro biological studies were established using the human epidermoid vulvar carcinoma A431 cell line, which overexpresses EGFR. Cells were available in our laboratory from previous studies. Cells were maintained in high glucose D-MEM medium with L-glutamine (PAA Laboratories GmbH, Pasching, Austria) and supplemented with 10% fetal bovine serum (PAA Laboratories GmbH) and penicillin/streptomycin (PAA Laboratories GmbH) 100 UI/100 μg per mL, in 5% CO2 incubator at 37 °C.
The in vitro cytotoxicity of the synthesized ligands and their rhenium complexes was determined by the MTT method. The A431 cells were seeded in 96-well plates at a density of 4000 cells per 100 μL per well and incubated for 24 h so that they were attached to the wells. After 24 h, the studied derivatives were dissolved in DMSO ([…]) and further diluted in D-MEM in various concentrations. […] The six concentrations of each derivative and control existed quadrupled into the experiment. The derivatives and the cells were incubated for 72 h. After three days, the medium was removed, and the cells were incubated […] in the presence of MTT (1 mg/mL 3-[4,5-dimethylthiazol-2-yl]-2,5-diphenyltetrazolium bromide, Sigma, Saint Louis, MO, USA) in RPMI (PAA Laboratories GmbH, Pasching, Austria) without phenol red for 2 h at 37 °C. The MTT solution was removed, and 2-propanol was added to each well to stop the cleavage of the tetrazolium ring by dehydrogenase enzymes which convert MTT to an insoluble purple formazan in living cells. The plates were then agitated at room temperature for about 15–20 min, and the level of the colored formazan derivative was determined by measuring optical density (OD) on an ELISA reader (540/620 nm). […] Cell proliferation assay was performed three times for each compound.
Background: Tetrazolium dyes change colour on reduction, which living cells bring about.

Experiment [2] has as its target T1, EGFR (Homo sapiens, UniProt P00533).
T1 construct: by immunoblotting in intact A431 cells that overexpress EGFR; endogenous in cells; host or cells: A431 (human epidermoid vulvar carcinoma)
The experiment in a line: Inhibition of EGFR phosphorylation in intact A431 cells (immunoblotting). It is filed as cell-based. The note with it: 2 h compound then EGF 20 ng/mL 5 min, Western blot. As for the experimental part: Complex 5a was evaluated for its potency to inhibit EGFR phosphorylation in various concentrations by immunoblotting in intact A431 cells that overexpress EGFR (Figure 3). In addition, the percentage of EGFR phosphorylation was calculated, and a dose-response curve was performed (Figure 4).
as §1
The inhibition of EGFR phosphorylation was studied as described in the literature. A431 cells (5 × 10^5 cells/well) were seeded in 6-well plates and incubated for 24 h. Then, the medium was replaced with fresh medium without fetal bovine serum. […] Protein band quantification was performed using Image-J software, and the percentage of EGFR phosphorylation inhibition was calculated using GraphPad Prism 9.0 software.
For orientation: In western blotting, separated proteins are transferred to a membrane and probed.

Where [3] appears, read: Homo sapiens, A-431, A431 cancer cell line, MTT, 72 h, mean ± SD of three experiments.
The mark [4] stands for this setting: A431 cancer cell line, MTT, 72 h, mean ± SD of three experiments.

Molecules are shown by their SMILES. Where two headings read alike, the source gives them in different places.

T1 sequence (P00533 25-1210): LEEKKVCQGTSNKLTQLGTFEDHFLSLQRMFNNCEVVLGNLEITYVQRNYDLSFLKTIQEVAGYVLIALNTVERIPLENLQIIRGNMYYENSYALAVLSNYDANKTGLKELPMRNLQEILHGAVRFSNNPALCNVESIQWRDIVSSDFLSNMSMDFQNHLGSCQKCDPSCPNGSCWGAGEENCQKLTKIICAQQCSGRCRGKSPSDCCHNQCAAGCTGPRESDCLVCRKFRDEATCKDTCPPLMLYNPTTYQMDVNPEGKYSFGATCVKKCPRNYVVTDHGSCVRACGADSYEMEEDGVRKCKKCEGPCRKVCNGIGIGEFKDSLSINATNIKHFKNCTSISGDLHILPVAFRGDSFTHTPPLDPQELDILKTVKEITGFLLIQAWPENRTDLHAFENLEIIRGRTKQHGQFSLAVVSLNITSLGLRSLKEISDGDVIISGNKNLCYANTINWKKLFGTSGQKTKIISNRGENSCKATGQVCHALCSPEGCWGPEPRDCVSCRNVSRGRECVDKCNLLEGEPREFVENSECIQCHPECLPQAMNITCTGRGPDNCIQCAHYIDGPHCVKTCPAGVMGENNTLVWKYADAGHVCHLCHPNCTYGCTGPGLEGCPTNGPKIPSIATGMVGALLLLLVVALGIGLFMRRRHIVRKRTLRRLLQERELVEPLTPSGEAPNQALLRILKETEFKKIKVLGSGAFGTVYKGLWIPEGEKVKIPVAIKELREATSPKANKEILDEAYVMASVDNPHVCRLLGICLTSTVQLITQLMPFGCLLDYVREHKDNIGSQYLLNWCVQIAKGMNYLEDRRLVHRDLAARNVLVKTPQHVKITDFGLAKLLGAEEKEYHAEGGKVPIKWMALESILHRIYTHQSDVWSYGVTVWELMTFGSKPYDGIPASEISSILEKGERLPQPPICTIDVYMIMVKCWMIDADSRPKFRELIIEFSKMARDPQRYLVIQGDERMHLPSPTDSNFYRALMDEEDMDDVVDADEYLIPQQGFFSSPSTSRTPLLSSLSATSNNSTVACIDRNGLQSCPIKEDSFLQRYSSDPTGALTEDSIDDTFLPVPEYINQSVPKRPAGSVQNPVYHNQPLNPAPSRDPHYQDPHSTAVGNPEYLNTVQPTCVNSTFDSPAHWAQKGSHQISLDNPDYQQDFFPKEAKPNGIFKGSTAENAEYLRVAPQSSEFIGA

For the compound `Nc1ccc2ncnc(Nc3cccc(Br)c3)c2c1` [Compound 1, 6-amino-4-[(3-bromophenyl)amino] quinazoline, reference compound], the IC50 in experiment [1] (Homo sapiens, A-431, 72 h) came to 2.3 ± 0.3 µM.

Regarding `CCOC(=O)CN(CCCCCC(=O)Nc1ccc2ncnc(Nc3cccc(Br)c3)c2c1)Cc1ccccn1` [Compound 4, 6-(pyridine-2-methyl N, N, acetic ethyl ester-hexanoyl)-4-[(3-bromophenyl)amino]-quinazoline], the IC50 in experiment [1] (setting [3]) was found to be 25.6 ± 3.87 µM.

Turning to `O=C([O-])CN(CCCCCC(=O)Nc1ccc2ncnc(Nc3cccc(Br)c3)c2c1)Cc1ccccn1.[C-]#[O+].[C-]#[O+].[C-]#[O+].[Re+]` [Compound 5a, fac-[Re(NNO)(CO)3]], the figures for the IC50 in experiment [2] and in experiment [1] (setting [4]) were 0.0261 µM and 8.85 ± 2.62 µM, respectively. For the compound `NC(CSCCCCCC(=O)Nc1ccc2ncnc(Nc3cccc(Br)c3)c2c1)C(=O)O` (stereo not drawn) [Compound 6, 6-(cysteine-N-hexanoyl)-4-[(3-bromophenyl)amino]-quinazoline], the IC50 in experiment [1] (setting [3]) came to 4.12 ± 0.92 µM.

For `NC(CSCCCCCC(=O)Nc1ccc2ncnc(Nc3cccc(Br)c3)c2c1)C(=O)[O-].[C-]#[O+].[C-]#[O+].[C-]#[O+].[Re+]` (stereo not drawn) [Compound 7a, fac-[Re(SNO)(CO)3]], the IC50 in experiment [1] (setting [4]) was determined as 29.6 ± 3.63 µM.

The IC50 is the concentration needed to halve the response being measured.
